Measurements as given in patent publication US9526782B2, “Pharmaceutical compositions comprising inhibitors of zinc-ZIP8-MTF1 as active ingredients for preventing or treating a joint disease” (GWANGJU INSTITUTE OF SCIENCE AND TECHNOLOGY, priority 2014, dated 2016).
Where two headings read alike, the source gives them in different places.

Experiments:
[1] = test system: matrix-degrading enzymes (MMP3, MMP9, MMP12, MMP13, and ADAMTS5); experiment: mRNA (qRT-PCR) and protein (Western blotting) levels of matrix-degrading enzymes in chondrocytes; assay type: cell-based, mouse; details: for Ad-Mtf1-induced upregulation of matrix-degrading enzymes, effect of the test agent: chondrocytes infected with Ad-Mtf1; for upregulation of MMP3, MMP13, and ADAMTS5 by IL1β, effect of the test agent: chondrocytes treated with IL1β; for inhibitory effects of TPEN on the ZIP8-mediated expression of matrix-degrading enzymes, effect of pre-incubation of TPEN with the metal salt: Ad-Zip8 chondrocytes, TPEN 1 μM pre-incubated with 1 μM metal ion; for expression of matrix-degrading enzymes caused by the substance itself: chondrocytes, metal salts 100 μM (CdCl2 1 μM)
Experimental: (§1) Adenoviruses expressing mouse Zip8 (Ad-Zip8) and Mtf1 (Ad-Mtf1) were purchased from Vector Biolabs. Mouse articular chondrocytes were cultured for 2 days, infected with empty virus (Ad-C), Ad-Zip8, or Ad-Mtf1 for 2 hours at the indicated multiplicity of infection (MOI), and cultured for 24 hours, followed by further analyses.
(§2) Total RNA was extracted from primary cultured chondrocytes using the TRI reagent (Molecular Research Center Inc.). For the isolation of RNA from knee joints, cartilage tissues were scraped with a blade to remove cartilage, and RNA was isolated using the TRI reagent and Purelink RNA mini kit (Ambion). The RNA was reverse transcribed, and the resulting cDNA was amplified by PCR.
(§3) Transcript levels were quantified by qRT-PCR. siRNAs targeting Zip8 and Mtf1 were obtained from Dharmacon and transfected using Lipofectamine 2000. Non-targeting (scrambled) siRNA was used as a negative control. Chondrocytes were transfected by incubating for 6 hours with siRNA and Lipofectamine 2000 (Invitrogen), and infected with adenoviruses as described above. Therapeutic antibodies for obstruction of ZIP8 function were purchased from Santa Cruz Biotechnology and MyBioSource Company, and treated in chondrocytes for 24 hours.
Total cell lysates were prepared in lysis buffer (150 mM NaCl, 1% NP-40, 50 mM Tris, 5 mM NaF) and used to detect cellular proteins (ZIP8, MTF1, and ERK). Secreted proteins (MMP3, MMP13, and ADAMTS5) were detected after trichloroacetic acid (TCA) precipitation from 900 μl of serum-free conditioned medium. All lysis buffers contained a cocktail of protease inhibitors and phosphatase inhibitors (Roche).

[2] = target: T1, ZIP8 (Mus musculus, UniProt Q91W10); experiment: Zn^2+ imaging and quantitation with FluoZin-3 AM in primary cultured articular chondrocytes; assay type: cell-based; details: for ZIP8-mediated increase in Zn^2+ influx: chondrocytes infected with Ad-Zip8, with the test agent; for IL1β-caused influx of Zn^2+ in chondrocytes, effect of the test agent: chondrocytes treated with IL1β; for cellular Zn^2+ level, effect of the substance itself: chondrocytes
T1 construct: host or cells: primary mouse articular chondrocytes infected with Ad-Zip8
T1 sequence (Q91W10 20-462): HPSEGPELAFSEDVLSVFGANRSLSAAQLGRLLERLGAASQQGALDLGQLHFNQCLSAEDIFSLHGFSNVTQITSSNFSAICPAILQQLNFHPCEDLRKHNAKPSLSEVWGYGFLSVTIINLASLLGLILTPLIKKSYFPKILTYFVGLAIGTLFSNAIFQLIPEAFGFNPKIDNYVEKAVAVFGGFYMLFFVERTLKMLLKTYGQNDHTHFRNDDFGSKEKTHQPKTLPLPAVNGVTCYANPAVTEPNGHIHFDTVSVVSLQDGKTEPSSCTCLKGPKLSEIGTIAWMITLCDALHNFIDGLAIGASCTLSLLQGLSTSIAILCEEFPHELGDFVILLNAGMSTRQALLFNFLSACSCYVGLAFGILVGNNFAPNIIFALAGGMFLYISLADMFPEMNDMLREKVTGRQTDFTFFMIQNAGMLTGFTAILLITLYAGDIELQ
Experimental: Chondrocytes were maintained as a monolayer in Dulbecco's Modified Eagle's Medium (DMEM) supplemented with 10% fetal bovine serum (FBS) and antibiotics, and cells at culture day 2 were treated as indicated in each experiment.
as §1
Intracellular Zn^2+ was detected using the Zn^2+-selective fluorophore, FluoZin-3 AM (Invitrogen). […] Cells were then washed with Ca^2+- and Mg^2+-free phosphate-buffered saline (PBS) and incubated for an additional 30 minutes at 37° C. Intracellular Zn^2+ images were acquired with a fluorescence microscope, and population-wide fluorescence intensity was measured using a Spectramax Gemini microplate fluorescence reader (Molecular Devices) with excitation at 488 nm, cut-off at 515 nm, and emission at 530 nm.
as §3

[3] = target: T2, MTF1 (Mus musculus, UniProt Q07243); experiment: MTF1 activity reporter gene assay and immunostaining in chondrocytes; assay type: cell-based; details: for inhibitory effects of TPEN on MTF1 transcriptional activity, effect of pre-incubation of TPEN with the metal salt: Ad-Zip8 chondrocytes, TPEN 1 μM pre-incubated with 1 μM metal ion; for MTF1 transcriptional activity, effect of the substance itself: chondrocytes, reporter gene assay
T2 construct: endogenous in cells; host or cells: primary mouse articular chondrocytes
T2 sequence (Q07243 whole entry): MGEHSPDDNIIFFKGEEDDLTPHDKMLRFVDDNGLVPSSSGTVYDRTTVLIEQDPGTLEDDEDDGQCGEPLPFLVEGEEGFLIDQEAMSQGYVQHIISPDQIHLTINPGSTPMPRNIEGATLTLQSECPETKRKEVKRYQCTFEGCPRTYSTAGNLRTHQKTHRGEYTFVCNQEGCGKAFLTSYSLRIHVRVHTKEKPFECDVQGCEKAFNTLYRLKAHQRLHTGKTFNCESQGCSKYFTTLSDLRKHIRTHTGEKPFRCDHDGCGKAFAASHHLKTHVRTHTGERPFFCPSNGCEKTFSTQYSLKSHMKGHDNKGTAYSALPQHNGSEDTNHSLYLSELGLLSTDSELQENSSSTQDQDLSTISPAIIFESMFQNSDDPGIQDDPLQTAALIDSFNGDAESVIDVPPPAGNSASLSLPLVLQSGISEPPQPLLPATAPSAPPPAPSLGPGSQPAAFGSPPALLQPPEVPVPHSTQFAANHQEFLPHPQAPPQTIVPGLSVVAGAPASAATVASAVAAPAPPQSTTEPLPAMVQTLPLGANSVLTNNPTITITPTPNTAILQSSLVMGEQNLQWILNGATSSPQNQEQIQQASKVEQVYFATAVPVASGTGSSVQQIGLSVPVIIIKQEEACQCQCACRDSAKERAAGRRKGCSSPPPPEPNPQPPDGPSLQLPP
Experimental: The MTF1 reporter gene assay kit was obtained from SABiosciences. Chondrocytes were transfected for 6 hours with a metal response element (MRE) reporter construct and a constitutive Renilla luciferase construct using Lipofectamine 2000 (Invitrogen). Transfected cells were infected with Ad-Mtf1 or Ad-Zip8 for 2 hours or treated with metal ions. Cells were harvested 24 hours after treatment, and firefly luciferase and Renilla luciferase activities were measured using a Dual Luciferase Assay System (Promega). […] MTF1 was detected by immunofluorescence microscopy. Images were acquired using a fluorescence microscope, and at least 200 cells were examined in multiple fields per condition to quantify the percentage of nuclear MTF1-positive cells.

[4] = test system: mouse knee joints; experiment: Experimental OA induced by IA injection of adenovirus into mouse knee joints, histology and immunostaining; assay type: in vivo; details: 0.1 mg/kg body weight
Source text: Male mice (C57BL/6, Col2a1-Zip8 TG, Zip8^+/−, Zip8^fl/fl; Zip8^fl/fl; Col2a1-Cre, Mtf1^+/−, Mtf1^fl/fl, Mtf1^fl/fl; Col2a1-Cre, Mt1^−/−; Mt2^−/−) were used for experimental OA studies. Chondrocyte-specific Zip8 TG (Col2a1-Zip8) mice were generated using the Col2a1 promoter and enhancer. Zip8^+/− mice were obtained from The European Mouse Mutant Archive. The Mtf1 mouse strain used for this research project was created from an ES cell clone generated by the Wellcome Trust Sanger Institute and developed into mice by the KOMP Repository and the Mouse Biology Program at the University of California, Davis. Zip8^+/− and Mtf1^+/− mice were backcrossed with Actb-Flp1 TG mice (The Jackson Laboratory) to generate Zip8fl/fl and Mtf1fl/fl mice, respectively. These mice were then backcrossed with Col2a1-Cre TG mice (The Jackson Laboratory) to generate chondrocyte-specific CKO mice (Zip8^fl/fl; Col2a1-Cre and Mtf1^fl/fl; Col2a1-Cre). Mt1^−/−, Mt2^−/− double-KO mice were obtained from The Jackson Laboratory. […]
Human OA cartilage was frozen, sectioned at 10-μm thickness, and fixed in paraformaldehyde. Sulfate proteoglycan was detected with alcian blue staining. Human ZIP8 was detected by immunostaining. […] Sections were deparaffinized in xylene, hydrated with graded ethanol, and stained with safranin-O. Cartilage destruction was scored by two blinded observers using the OARSI grading system (Glasson et al., 2010). Synovitis was determined by safranin-O and hematoxylin staining, and synovial inflammation (grade 0-3) was scored as described previously (Yang et al., 2010). Osteophyte development was identified by safranin-O staining, and osteophyte maturity was quantified as described previously (Oh et al., 2012). Subchondral bone sclerosis was determined by measuring the thickness of the subchondral bone plate (Zhen et al., 2013). Antibodies used for immunostaining of cartilage sections are as follows: ZIP8 and MTF1 in human cartilage tissue sections were detected by antibodies obtained from Proteintech (20459-1-AP) and Novus (NBP1-86380), respectively. […]

[5] = test system: ZIP8; experiment: Expression levels of metal ion transporters in chondrocytes treated with IL1β; assay type: cell-based; details: primary cultures of mouse articular chondrocytes
Source text: FIG. 1a represents mRNA levels of metal ion transporters determined by qRT-PCR in articular chondrocytes treated with IL1β (n=10). Insert is Western blotting of ZIP8 in chondrocytes treated with IL1β.
as §2

[6] = chondrocytes infected with Ad-Zip8

c1ccc(-c2ccccn2)nc1 [2,2-bipyridyl]
Ad-Zip8 (ZIP8)-induced upregulation of matrix-degrading enzymes, effect of the test agent [1, 6]: did not affect

O=C(O)CN(CCN(CC(=O)O)CC(=O)O)CC(=O)O.[Ca] [CaEDTA, calcium-saturated EDTA]
ZIP8-mediated increase in Zn^2+ influx [2]: abolished | IL1β-caused influx of Zn^2+ in chondrocytes, effect of the test agent [2]: blocked | Ad-Mtf1-induced upregulation of matrix-degrading enzymes, effect of the test agent [1]: abolished | Ad-Zip8 (ZIP8)-induced upregulation of matrix-degrading enzymes, effect of the test agent [1, 6]: blocked | upregulation of MMP3, MMP13, and ADAMTS5 by IL1β, effect of the test agent [1]: abolished

[Cl][Cd][Cl] [CdCl2]
inhibitory effects of TPEN on the ZIP8-mediated expression of matrix-degrading enzymes, effect of pre-incubation of TPEN with the metal salt [1]: no significant effects | MMP12 expression ([1]; chondrocytes treated with metal ion): modest induction | expression of matrix-degrading enzymes caused by the substance itself [1]: did not cause a marked expression | expression of matrix-degrading enzymes caused by the substance itself ([1]; listed as Cd^2+): no significant effect | inhibitory effects of TPEN on MTF1 transcriptional activity, effect of pre-incubation of TPEN with the metal salt [3]: not | MTF1 transcriptional activity, effect of the substance itself [3]: moderate activation

[Cl][Fe][Cl] [FeCl2]
inhibitory effects of TPEN on the ZIP8-mediated expression of matrix-degrading enzymes, effect of pre-incubation of TPEN with the metal salt [1]: no significant effects | expression of matrix-degrading enzymes caused by the substance itself [1]: moderate expression | inhibitory effects of TPEN on MTF1 transcriptional activity, effect of pre-incubation of TPEN with the metal salt [3]: not | MTF1 transcriptional activity, effect of the substance itself [3]: no effect

[Cl][Mn][Cl] [MnCl2]
inhibitory effects of TPEN on the ZIP8-mediated expression of matrix-degrading enzymes, effect of pre-incubation of TPEN with the metal salt [1]: no significant effects | expression of matrix-degrading enzymes caused by the substance itself [1]: did not cause a marked expression | inhibitory effects of TPEN on MTF1 transcriptional activity, effect of pre-incubation of TPEN with the metal salt [3]: not | MTF1 transcriptional activity, effect of the substance itself [3]: no effect

c1ccc(CN(CCN(Cc2ccccn2)Cc2ccccn2)Cc2ccccn2)nc1 [TPEN, N,N,N′,N′-tetrakis (2-pyridylmethyl)ethylenediamine]
ZIP8-mediated increase in Zn^2+ influx [2]: abolished | IL1β-caused influx of Zn^2+ in chondrocytes, effect of the test agent [2]: blocked | Ad-Mtf1-induced upregulation of matrix-degrading enzymes, effect of the test agent [1]: abolished | Ad-Zip8 (ZIP8)-induced upregulation of matrix-degrading enzymes, effect of the test agent [1, 6]: blocked | upregulation of MMP3, MMP13, and ADAMTS5 by IL1β, effect of the test agent [1]: abolished | Ad-Zip8-induced MMP expression, effect of co-injection [4]: significantly blocked | Ad-Zip8-induced cartilage destruction, effect of co-injection [4]: significantly blocked | Ad-Zip8-induced synovitis, effect of co-injection [4]: significantly blocked | MTF1 transcriptional activity in Ad-Zip8-infected chondrocytes, effect of the test agent ([3]; 800 MOI of Ad-Zip8, TPEN 1 μM): inhibitory effects

IL1β: proinflammatory cytokine that promotes catabolism in arthritic cartilage
cellular Zn^2+ level, effect of the substance itself [2]: caused an influx of Zn^2+ | cellular Zn^2+ level, effect of the substance itself ([2]; listed as IL-1): increases | ZIP8 expression levels [5]: markedly increased

mithramycin-A
Ad-Zip8 (ZIP8)-induced upregulation of matrix-degrading enzymes, effect of the test agent [1]: significantly attenuated
